# In patent US20240368552A1, “PRE-EPICARDIAL CELLS AND USES THEREOF” (The General Hospital Corporation, priority 2021, published 2024):
# Experiments:
# Assay type in all cases: cell-based, human
# hiPSC-derived CMs = test: Differentiation of ventricular-like CM population with BMS-189453; details: day 30, treated 96 h starting at day 3, vs control
# Experimental: (§1) Quantitative PCR. Cells were lysed with RT buffer and total RNA was purified using RNeasy® Plus Mini kit (Qiagen, Hilden, Germany) which was reverse transcribed to cDNA using Superscript IV VILO Master Mix (Gibco, Grand Island, NY) and ran on Bio-rad T100™ Thermal Cycler according to manufacturer's protocol. Quantitative PCR was performed on StepOnePlus Real-time PCR system (Applied Biosystems, Foster City, CA) after mixing cDNA with Taqman Gene Expression Master Mix (Cat #: 4369016) and gene Taqman probe (Applied Biosystems, Foster City, CA) which can be found in Table 1. All gene expressions were normalized to housekeeping gene beta-actin and presented as log 2fold change (delta-delta CT).
# Differentiation of Ventricular-like CM population. Human iPS cells were maintained and differentiated to LPM with Stemolecule™ CHIR99021 for 48 h. BMS-189453 (1-2 μM, Sigma Aldrich, St. Louis, MO) was supplemented together with Stemolecule™ Wnt inhibitor IWP-4 (Stemgent, San Diego, CA) in RPMI-INS for 48 h starting day 3. Then, BMS-189453 treatment was continued after additional 48 h after withdrawal of Stemolecule™ Wnt inhibitor IWP-4 in RPMI-INS until day 9. Culture medium was then switched to RPMI supplemented with insulin containing B27 to further maintain the differentiated ventricular myocytes until use.
# IGF2 = test: Inhibition of RA signaling in PEC in transwell (IGF2 qPCR); details: 5 μM, 6 days, vs control without BMS
# Experimental: as §1
# Inhibition of RA signaling in PEC in Transwell: PECs were seeded at 2.5×10^5 cells/well in 24 well-plate while 2.5×10^5 cells VM were cultured in the transwell insert. Both cells were cultured using PECM:RPMI-INS medium, with […] (5 μM) only present in lower compartment with PECs, for 6 days. IGF2 RNA was harvested from PECs for qPCR analysis.
# hiPSCs (BJR-iPS cells) = test: Lateral plate mesoderm (LPM) induction from hiPSCs with CHIR, flow cytometry and RT-PCR
# Experimental: HiPSC culture, maintenance and differentiation. Human BJR-iPS cells (hiPSCs) were obtained from Harvard Stem Cell Institute, and maintained in MTeSR medium (STEMCELL Technologies). hiPSCs were passaged with ReleaSR (STEMCELL Technologies, Cambridge, MA) and plated at 1:20 ratio every 7 days onto […] pre-coated with growth factor reduced (GFR)-Matrigel (Corning, Tewksbury, MA). Briefly, hiPSCs were seeded at 200,000 cells/cm^2 onto a GFR-Matrigel-coated plate and maintained in MTeSR medium for 4-5 days. To generate the lateral plate mesoderm (LPM), the cells were treated with 12 μM Stemolecule™ CHIR99021 (Stemgent, San Diego, CA) in differentiation basal medium consisting of RPMI medium supplemented with B27 without insulin (Gibco, Grand Island, NY) (RPMI-INS,) for 48 h. Then, the medium was replaced with RPMI-INS for 24 h. Next, the culture was incubated with 5 μM of Stemolecule™ Wnt inhibitor IWP-4 (Stemgent, San Diego, CA) in RPMI-INS for 48 hr before switching it back to RPMI-INS, for additional 48 hr. After that, the medium was changed to RPMI medium supplemented with insulin-containing B27, and refreshed every 2 days for long term maintenance. For PEC differentiation, LPM cells at day 3 were treated with RPMI-INS supplemented 50 ng/ml bone morphogenic protein (BMP) 4 (PeproTech, Rocky Hill, NJ), 5 ng/ml vascular endothelial growth factor (VEGF; PeproTech, Rocky Hill, NJ) and 4 μM retinoic acid (RA; Stemgent, San Diego, CA) in RPMI-INS and changed every 2 days for 96 hr. PECs were dissociated using collagenase I (Sigma Aldrich, St. Louis, MO) and 1×TrypLE Express Enzyme (Gibco, Grand Island, NY), and maintained in complete PEC medium (PECM) consisted of DMEM/F12 supplemented with 1×insulin-selenium-transferrin (ITS; Gibco, Grand Island, NY), 5 ng/ml VEGF (PeproTech, Rocky Hill, NJ), 10 μM retinol, 4 μM RA (Stemgent, San Diego, CA) and 60 μg/ml ascorbic acid (Sigma). For plating, 1 μM of ROCK inhibitor Y-27632 dihydrochloride (Tocris Bioscience, Bristol, UK) was added for 24 h to facilitate cell attachment, after which medium was switched to PECM. For PEC maintenance, differentiated PEC were passaged and seeded at 10,000/well of 24 well-plate and maintained using SB medium consisted of DMEM/F12 supplemented with 0.4 mg/ml of Albumax (Gibco, Grand Island, NY), 1×ITS (Gibco, Grand Island, NY), 60 μg/ml ascorbic acid (Sigma Aldrich, St. Louis, MO), with 2 μM TGFβ inhibitor SB431542 (Tocris Bioscience, Bristol, UK). […]
# Quantitative PCR. […] Quantitative PCR was performed on StepOnePlus Real-time PCR system (Applied Biosystems, Foster City, CA) after mixing cDNA with Taqman Gene Expression Master Mix (Cat #: 4369016) and gene Taqman probe (Applied Biosystems, Foster City, CA) which can be found in Table 1. […]
# ventricular-CMs = test: IGF signaling in PEC-induced ventricular-CM proliferation (IGF1R inhibition assay, IGF2 dose-response)
# PECs = test: Stimulation of epithelial-mesenchymal transition in PECs; details: for PECs CD90 positive: 6 days treatment, flow cytometry; for PEC phenotype (ZO1, WT1, morphology): immunofluorescence, extended culture / 6 days
# Experimental: Stimulation of epithelial-mesenchymal transition in PECs. Day 7 PECs were seeded at 100,000 cells/well on 24-well-plate pre-coated with 0.1% gelatin, and allowed to attach overnight in basal medium (BM) consisted of DMEM/F12 supplemented with […] of Albumax (Gibco, Grand Island, NY), 1×ITS (Gibco, Grand Island, NY), 60 μg/ml ascorbic acid (Sigma Aldrich, St. Louis, MO). 1 μM of ROCK inhibitor Y27632 (Tocris Bioscience, Bristol, UK) was added to facilitate PEC attachment for 24 h. Then, PECs were expanded to full confluency in the BM with 2 μM SB431542 (Stemgent, San Diego, CA) but without AlbuMAX II (Gibco, Grand Island, NY), for 3-4 days. EMT were initiated by adding 5 ng/ml TGFβ (R&D system, Minneapolis, MN) for the initial 3 days and 10 ng/ml bFGF (PeproTech, Rocky Hill, NJ) for the subsequent 3 days or just bFGF alone, up to 6 days. Controls were epicardial cells in basal medium or with addition of 2 μM SB431542 (Stemgent, San Diego, CA).
# as §1
# Flow cytometry. Cells were dissociated using trypsin, pelleted by centrifugation at 300 g for 5 min, and fixed with Fixation/Permeabilization Solution Kit according to manufacturer's protocol (BD Biosciences, San Diego, CA). Cells were washed with 2 times of 10% BD Perm/Wash Buffer (BD Biosciences, San Diego, CA) to remove fixative prior to staining. Samples were incubated with primary antibody diluted in BD Perm/Wash Buffer at 4° C. for 45 min. To remove excessive primary antibody, samples were spun at 250 g for 5 min and washed once with Perm/Wash buffer prior to labelling with Alexa Fluor 488 secondary antibody (Molecular Probes Eugene, OR) at 1:500 for 30 min. All samples were washed once with BD Perm/Wash Buffer prior to analysis with BD Accuri, BD FACS LSR Flow Cytometer (BD Biosciences, San Diego, CA) or NovoCyte Flow Cytometer (ACEA Biosciences, San Diego, CA). All flow cytometric analyses were performed using FlowJo 10.5.0 software.
# Immunofluorescence labelling and microscopy (cells, spheres, aggregates). Cultured cells were fixed with cold methanol at 4° C. for 15 min, and then washed with PBS. CM-spheres, PEC-Spheres, and cardiac aggregates were fixed overnight with 4% paraformaldehyde, embedded in Histogel™ (Thermo Scientific, Kalamazoo, MI), dehydrated, and embedded in paraffin. Sections were cut at 5 μm, deparaffinized, and treated with a heat-mediated antigen retrieval technique that included a 20-min boilin 0.01 M citrate buffer (pH 7.0). Both cells and histological sections were labelled with primary antibodies (Table 1) overnight at 4° C. Donkey anti rabbit AlexaFluor 488 and donkey anti-mouse AlexaFluor 546 and 647 (Molecular Probes Eugene, OR) were used as secondary antibodies at 1:500 and nuclei were counterstained with DAPI (Sigma Aldrich, St. Louis, MO). All labelled cells were visualized using Nikon Eclipse Ti fluorescence microscope (Nikon Instruments, Melville, NY), and processed with NIS element imaging software or ImageJ.
# [1] = 48 h CHIR treatment, day 3, RT-PCR vs hiPSC
# [2] = day 3, 48 h CHIR treatment, flow cytometry
# [3] = 6 days, RT-PCR vs SB-treated PECs
compound,measurement,setting,value
"CC1(C)CC=C(c2ccccc2)c2cc(/C=C/c3ccc(C(=O)O)cc3)ccc21 [BMS, BMS189453]",ventricular genes MYH7 and MYL2 expression,hiPSC-derived CMs,significantly upregulated
same,IGF2 expression in co-cultured PECs,IGF2,significantly reduced
"Cc1c[nH]c(-c2cnc(NCCNc3ccc(C#N)cn3)nc2-c2ccc(Cl)cc2Cl)n1 [CHIR, CHIR99021]","pluripotency markers (OCT3/4, SOX2, NANOG) expression",hiPSCs (BJR-iPS cells); [1],significant downregulation
same,"primitive streak, lateral plate mesoderm and cardiac progenitor marker expression",hiPSCs (BJR-iPS cells); [1],significant upregulation
same,LPM progenitors expressing KDR,hiPSCs (BJR-iPS cells); [2],88.0±3.6%
same,LPM progenitors expressing PDGFRA,hiPSCs (BJR-iPS cells); [2],73.7±4.3%
C[C@]1(O)C[C@@H](c2nc(-c3ccc4ccc(-c5ccccc5)nc4c3)c3c(N)nccn32)C1 [Linsitinib],cTnT+ EdU+ CMs,"ventricular-CMs; treated with 1 μM, 3 days, PEC coculture",7.0±0.4%
"NC(=O)c1ccc(-c2nc(-c3ccc4c(c3)OCO4)c(-c3ccccn3)[nH]2)cc1 [SB, SB431542]",PECs CD90 positive,PECs,1.1±0.1%
same,"PEC phenotype (ZO1, WT1, morphology)",PECs,maintain the cuboidal epithelial phenotype with defined ZO1 expression
IGF2: IGF2 protein added to ventricular CMs,cTnT+ EdU+ CMs,"ventricular-CMs; IGF2 addition, dose-response",significantly increased
TGFβ,PECs CD90 positive,PECs,28.7±3.5%
same,"ACTA2, DDR2 and POSTN expression",PECs; [3],significant increases
same,"PEC phenotype (ZO1, WT1, morphology)",PECs,"ZO1 disarrangement, cell and nucleus enlargement, and WT1-expression loss"
"bFGF: bFGF growth factor (PeproTech), 10 ng/ml",PECs CD90 positive,PECs,95.3±0.7%
same,"ACTA2, DDR2 and POSTN expression",PECs; [3],significant increases
same,SNAI1 expression,PECs; [3],upregulation
same,fibroblast markers TCF21 and VIM expression,PECs; [3],significant upregulation
same,"PEC phenotype (ZO1, WT1, morphology)",PECs,"ZO1 disarrangement, cell and nucleus enlargement, and WT1-expression loss"
